Results published in ChEMBL document CHEMBL2311460, “Synthesis and antiplasmodial activity of some 1-azabenzanthrone derivatives” (Bioorg Med Chem Lett, 2013).

What was measured:
MRC5 = test: Cytotoxicity against human MRC5 cells; assay type: cell-based
[1] = Selectivity index, ratio of IC50 for human MRC5 cells to IC50 for chloroquine-resistant Plasmodium falciparum FCR-3; assay type: toxicity, cell-based; conditions: read-out: Ratio IC50
Plasmodium falciparum = test: Antiplasmodial activity against chloroquine-resistant Plasmodium falciparum FCR-3 infected in human A positive erythrocytes by [3H]-hypoxanthine incorporation assay; assay type: functional, organism-based; conditions: FCR-3/Gambia

Row | Compound | IC50 (MRC5) [µM] | selectivity ratio [1] | IC50 (Plasmodium falciparum) [µM]
1 | COc1cc2c3c(nccc3c1[N+](=O)[O-])-c1ccccc1C2=O | 10.2 | 0.49 | 21
2 | COc1cc2c3c(nccc3c1N)-c1ccccc1C2=O | 37 | 0.37 | 100
3 | COc1cc2c3c(c1)C(=O)c1ccccc1C3=NCC2 | 81.3 | 32.4 | 2.5
4 | COc1cc2c3c(nccc3c1)-c1ccccc1C2=O | > 100 | > 15.6 | 6.4
5 | COc1cc2ccnc3c2c(c1[N+](=O)[O-])C(=O)c1ccccc1-3 | 80 | 1.42 | 56
6 | COc1cc2ccnc3c2c(c1O)C(=O)c1ccccc1-3 | 65.1 | 1.27 | 51
7 | COc1cc2c3c(nccc3c1Br)-c1ccccc1C2=O | > 100 | > 1.99 | 52
8 | COc1cc2ccnc3c2c(c1OC)C(=O)c1ccccc1-3 | 50.5 | 0.68 | 74
9 | O=C1c2ccccc2-c2ncc(Br)c3cccc1c23 | > 100 | > 0.38 | 260
10 | COc1cc2c3c(ncc(Br)c3c1)-c1ccccc1C2=O | 28.9 | 0.13 | 220
11 | O=C1c2ccccc2-c2nccc3cccc1c23 | 41.6 | 0.18 | 230
12 | COc1cc2ccnc3c2c(c1N)C(=O)c1ccccc1-3 [LAKSHMININE] | 17.9 | 0.18 | 100
